What is called MIC is the smallest concentration in the dilution series that meets the test's criterion for growth inhibition. As usually defined, the IC50 is the point on the concentration scale where inhibition reaches its midpoint.

Values after ≈ are worked out from the molar mass of the structure shown.

In data set [1] the test system is Mycobacterium tuberculosis. Description: Antitubercular activity against Mycobacterium tuberculosis H37Rv assessed as bacterial growth inhibition incubated for 28 days by agar dilution method. The data set is classed as functional. The following applies: 672 h, time 28 day.
Another data set relates to Vero. Description: Cytotoxicity against African green monkey Vero cells assessed as reduction in cell viability measured after 72 hrs by MTT assay. The following applies: Chlorocebus sabaeus. The data set is classed as cell-based.
In data set [2] the target is T1, Albumin (Homo sapiens, UniProt P02768). Description: Binding affinity to human serum albumin assessed as Stem-Volmer quenching constant. It counts as ADME. The note with it: isolated protein.
Data set [3] concerns the target T1, Albumin. In words: Binding affinity to human serum albumin assessed as quenching constant. It counts as ADME. The note with it: isolated protein.
For data set [4], the target named is T1, Albumin. In words: Binding affinity to human serum albumin assessed as binding constant. The following applies: isolated protein. The data set is classed as ADME.
Data set [5] has as its target T1, Albumin. In words: Binding affinity to human serum albumin assessed as quenching of intrinsic fluorescence at 2.5 to 15 uM and 298 K by fluorescence spectroscopy. It counts as ADME. The following applies: isolated protein, dose 2.5-15 µM.
Data set [6] addresses T1, Albumin. Description: Binding affinity to human serum albumin at protein to compound molar ratio of 1:1 by fluorescence spectroscopy. The data set is classed as ADME. The following applies: isolated protein.
Data set [7] has as its target T1, Albumin. In words: Binding affinity to human serum albumin assessed as critical distance with 50% energy transfer between protein and compound by FRET assay. It counts as ADME. The following applies: isolated protein.
Data set [8] addresses T1, Albumin. Description: Binding affinity to human serum albumin assessed as distance between the acceptor and donor by FRET assay. The following applies: isolated protein. It counts as ADME.

T1 sequence (P02768 whole entry): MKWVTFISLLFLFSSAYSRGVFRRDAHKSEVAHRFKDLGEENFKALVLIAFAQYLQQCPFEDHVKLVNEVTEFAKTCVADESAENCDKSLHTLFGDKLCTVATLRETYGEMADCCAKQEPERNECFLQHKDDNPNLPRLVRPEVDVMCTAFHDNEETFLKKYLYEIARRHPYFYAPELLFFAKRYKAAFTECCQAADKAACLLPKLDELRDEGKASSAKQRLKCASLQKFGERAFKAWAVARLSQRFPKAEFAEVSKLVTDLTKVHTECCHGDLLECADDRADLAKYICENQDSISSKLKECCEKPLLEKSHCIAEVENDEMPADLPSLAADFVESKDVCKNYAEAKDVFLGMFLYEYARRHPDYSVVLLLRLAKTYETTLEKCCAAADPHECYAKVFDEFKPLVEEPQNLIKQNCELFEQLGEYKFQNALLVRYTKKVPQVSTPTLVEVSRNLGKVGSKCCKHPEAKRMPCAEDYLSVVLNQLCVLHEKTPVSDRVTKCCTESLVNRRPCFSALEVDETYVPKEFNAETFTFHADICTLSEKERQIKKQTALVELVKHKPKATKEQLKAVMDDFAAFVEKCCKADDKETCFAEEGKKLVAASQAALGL

Consider `NC(=O)c1ccc(-n2cc(CNC(=O)c3c[nH]c(-c4ccccc4)n3)nn2)cc1`, for which, in data set [1], the minimum inhibitory concentration (MIC) was determined as 1.47 µM (≈ 0.569 µg/mL). The IC50 in the data set on Vero came out at 198 µM. For the same compound, on Albumin [2], the KSV was 5.02 10^4L/mol. Also, the Kq on Albumin [3] was 8.36 10^12L/mol/s. The Kb at Albumin [4] is on record as 2.58 10^3L/mol. Also, the Activity entry at Albumin [5] is “Active”; at Albumin [6] it was “Active”; at Albumin [7], 1.49 nm; on Albumin [8], 2.09 nm.

Turning to `COc1ccc(-n2cc(CNC(=O)c3c[nH]c(-c4ccccc4)n3)nn2)cc1`, the MIC in data set [1] was 10.6 µM (≈ 3.98 µg/mL). The IC50 in the data set on Vero was found to be 388 µM.

As to `O=C(NCc1cn(-c2ccc(O)cc2)nn1)c1c[nH]c(-c2ccccc2)n1`, the MIC in data set [1] amounted to 5.19 µM (≈ 1.87 µg/mL). The half-inhibitory concentration (IC50) with Vero turned out to be 281 µM.

For `Nc1ccc(-n2cc(CNC(=O)c3c[nH]c(-c4ccccc4)n3)nn2)cc1`, the minimal inhibitory concentration (MIC) in data set [1] worked out at 2.03 µM (≈ 0.73 µg/mL). The IC50 with Vero came out at 237 µM. For the same compound, the KSV at Albumin [2] is listed as 4.38 10^4L/mol. Further, the Kq at Albumin [3] is given as 8.11 10^12L/mol/s. In addition, on Albumin [4], the Kb is listed as 2.16 10^3L/mol. In addition, the Activity entry at Albumin [5] was “Active”; on Albumin [6], “Active”; at Albumin [7], 1.81 nm; at Albumin [8], 2.36 nm.

As for `Cc1ccc(-n2cc(CNC(=O)c3c[nH]c(-c4ccccc4)n3)nn2)cc1`, in [1], the MIC was 19.5 µM (≈ 6.97 µg/mL). In addition, the 50% inhibitory concentration (IC50) in the data set with Vero turned out to be 409 µM.

For the compound `NNC(=O)c1ccncc1` [ISONIAZID], the MIC in data set [1] was determined as 0.36 µM (≈ 0.0494 µg/mL). Further, the IC50 with Vero was above 456 µM.

These data come from ChEMBL document CHEMBL4706667, “Click synthesis of 1,2,3-triazole based imidazoles: Antitubercular evaluation, molecular docking and HSA binding studies” (Bioorg Med Chem Lett, 2021).
